Data as given in ChEMBL document CHEMBL5518228, “DNA Interaction and Cleavage Modes of Anthraquinone-Fused Enediynes: A Study on Tiancimycins, Yangpumicins, and Their Semisynthetic Analogues” (J Med Chem, 2024).
The source made the active and inactive calls. The rule behind the calls is not given here.

Assays:
[1] = test system: Supercoiled DNA; assay: Induction of supercoiled pBR322 DNA (unknown origin) cleavage at 50 uM incubated for 1 hr in presence of adriamycin by agarose gel electrophoresis analysis; assay type: nucleic-acid assay
[2] = test system: Calf thymus DNA; assay: Binding affinity to calf thymus DNA assessed as DNA insertion by measuring change in gibbs free energy in presence of triggered form of compound by fluorescence spectroscopic analysis; assay type: nucleic-acid assay; conditions: Bos taurus
[3] = test system: KPL-4; assay: Antitumor activity against human KPL-4 cells xenografted with BALB/c mouse assessed as reduction in tumor mass at 0.2 mg/kg,iv administrated once per week for 2 weeks; assay type: functional, organism-based
[4] = Toxicity in BALB/c mouse xenografted with human KPL-4 cells assessed as body weight loss at 0.2 mg/kg,iv administrated once per week for 2 weeks; assay type: organism-based; conditions: in vivo, 336 h
[5] = test system: Supercoiled DNA; assay: Induction of supercoiled pBR322 DNA (unknown origin) cleavage at 50 uM incubated for 1 hr in presence of bleomycin and ferrous ion by agarose gel electrophoresis analysis; assay type: nucleic-acid assay
[6] = Toxicity in BALB/c mouse xenografted with human KPL-4 cells assessed as pathological damage in heart at 0.05 mg/kg,iv administrated once per week for 2 weeks by H and E staining based analysis; assay type: organism-based; conditions: in vivo, 336 h
[7] = test system: Caco-2; assay: Cytotoxicity against human Caco-2 cells incubated for 72 hrs by CCK-8 assay; assay type: functional, cell-based; conditions: Caco-2, 72 h
[8] = Toxicity in BALB/c mouse xenografted with human KPL-4 cells assessed as pathological damage in heart at 0.2 mg/kg,iv administrated once per week for 2 weeks by H and E staining based analysis; assay type: organism-based; conditions: in vivo, 336 h
[9] = Toxicity in BALB/c mouse xenografted with human KPL-4 cells assessed as pathological damage in liver at 0.2 mg/kg,iv administrated once per week for 2 weeks by H and E staining based analysis; assay type: organism-based; conditions: in vivo, 336 h
[10] = test system: KPL-4; assay: Antitumor activity against human KPL-4 cells xenografted with BALB/c mouse assessed as reduction in tumor mass at 0.05 mg/kg,iv administrated once per week for 2 weeks; assay type: functional, organism-based
[11] = test system: Supercoiled DNA; assay: Induction of supercoiled pBR322 DNA (unknown origin) cleavage at 50 uM incubated for 1 hr in presence of DTT under pH 7.4 condition by agarose gel electrophoresis analysis; assay type: nucleic-acid assay
[12] = test system: Supercoiled DNA; assay: Induction of supercoiled pBR322 DNA (unknown origin) cleavage at 50 uM incubated for 1 hr under pH 5.5 to 6.5 condition by agarose gel electrophoresis analysis; assay type: nucleic-acid assay
[13] = Cytotoxicity against human HUVEC cells incubated for 72 hrs by CCK-8 assay; assay type: toxicity, cell-based
[14] = test system: Supercoiled DNA; assay: Induction of supercoiled pBR322 DNA (unknown origin) cleavage at 50 uM incubated for 1 hr in presence of GSH by agarose gel electrophoresis analysis; assay type: nucleic-acid assay
[15] = Cytotoxicity against human KPL-4 cells incubated for 72 hrs by CCK-8 assay; assay type: functional, cell-based; conditions: KPL4, 72 h
[16] = test system: Supercoiled DNA; assay: Induction of supercoiled pBR322 DNA (unknown origin) cleavage at 50 uM incubated for 1 hr in presence of bleomycin by agarose gel electrophoresis analysis; assay type: nucleic-acid assay
[17] = test system: Supercoiled DNA; assay: Induction of supercoiled pBR322 DNA (unknown origin) cleavage at 50 uM incubated for 1 hr in presence of catalase under pH 7.4 condition by agarose gel electrophoresis analysis; assay type: nucleic-acid assay
[18] = test system: Supercoiled DNA; assay: Induction of supercoiled pBR322 DNA (unknown origin) cleavage at 50 uM incubated for 1 hr in presence of NADPH by agarose gel electrophoresis analysis; assay type: nucleic-acid assay
[19] = test system: Jurkat; assay: Cytotoxicity against human Jurkat cells incubated for 72 hrs by CCK-8 assay; assay type: functional, cell-based
[20] = Toxicity in BALB/c mouse xenografted with human KPL-4 cells assessed as pathological damage in liver at 0.05 mg/kg,iv administrated once per week for 2 weeks by H and E staining based analysis; assay type: organism-based; conditions: in vivo, 336 h
[21] = test system: Supercoiled DNA; assay: Induction of supercoiled pBR322 DNA (unknown origin) cleavage at 50 uM incubated for 1 hr in presence of pyridine under pH 7.4 condition by agarose gel electrophoresis analysis; assay type: nucleic-acid assay
[22] = test system: A549; assay: Cytotoxicity against human A549 cells incubated for 72 hrs by CCK-8 assay; assay type: functional, cell-based; conditions: A549, 72 h
[23] = test system: Calf thymus DNA; assay: Binding affinity to calf thymus DNA assessed as change in gibbs free energy in presence of ethidium bromide by competitive binding based fluorescence spectroscopic analysis; assay type: nucleic-acid assay; conditions: Bos taurus
[24] = Toxicity in BALB/c mouse xenografted with human KPL-4 cells assessed as pathological damage in kidney at 0.05 mg/kg,iv administrated once per week for 2 weeks by H and E staining based analysis; assay type: organism-based; conditions: in vivo, 336 h
[25] = Toxicity in BALB/c mouse xenografted with human KPL-4 cells assessed as pathological damage in spleen at 0.05 mg/kg,iv administrated once per week for 2 weeks by H and E staining based analysis; assay type: organism-based; conditions: in vivo, 336 h
[26] = test system: DNA; assay: Induction of duplex DNA (unknown origin) cleavage assessed as DNA cleaved fragments at AT-rich region at 1 mM incubated for 6 hr in presence of DTT by agarose gel electrophoresis analysis; assay type: nucleic-acid assay
[27] = Toxicity in BALB/c mouse xenografted with human KPL-4 cells assessed as pathological damage in kidney at 0.2 mg/kg,iv administrated once per week for 2 weeks by H and E staining based analysis; assay type: organism-based; conditions: in vivo, 336 h
[28] = test system: Calf thymus DNA; assay: Binding affinity to calf thymus DNA assessed as DNA insertion by measuring change in gibbs free energy by fluorescence spectroscopic analysis; assay type: nucleic-acid assay; conditions: Bos taurus
[29] = test system: Supercoiled DNA; assay: Induction of supercoiled pBR322 DNA (unknown origin) cleavage at 50 uM incubated for 1 hr under pH 5.5 to 9.5 condition by agarose gel electrophoresis analysis; assay type: nucleic-acid assay
[30] = Toxicity in BALB/c mouse xenografted with human KPL-4 cells assessed as pathological damage in lung at 0.05 mg/kg,iv administrated once per week for 2 weeks by H and E staining based analysis; assay type: organism-based; conditions: in vivo, 336 h
[31] = Toxicity in BALB/c mouse xenografted with human KPL-4 cells assessed as pathological damage in spleen at 0.2 mg/kg,iv administrated once per week for 2 weeks by H and E staining based analysis; assay type: organism-based; conditions: in vivo, 336 h
[32] = test system: Supercoiled DNA; assay: Induction of supercoiled pBR322 DNA (unknown origin) cleavage at 50 uM incubated for 1 hr in presence of DTT by agarose gel electrophoresis analysis; assay type: nucleic-acid assay
[33] = test system: Supercoiled DNA; assay: Induction of supercoiled pBR322 DNA (unknown origin) cleavage at 50 uM incubated for 1 hr in presence of actinomycin D by agarose gel electrophoresis analysis; assay type: nucleic-acid assay
[34] = Cytotoxicity against human NCM460 cells incubated for 72 hrs by CCK-8 assay; assay type: toxicity, cell-based
[35] = Toxicity in BALB/c mouse xenografted with human KPL-4 cells assessed as pathological damage in lung at 0.2 mg/kg,iv administrated once per week for 2 weeks by H and E staining based analysis; assay type: organism-based; conditions: in vivo, 336 h
[36] = test system: Supercoiled DNA; assay: Induction of supercoiled pBR322 DNA (unknown origin) cleavage assessed as relaxation of supercoiled plasmid incubated for 1 hr in presence of DTT by SYBR I Green staining based agarose gel electrophoresis analysis; assay type: nucleic-acid assay

Structure (SMILES): COc1ccc2c(c1OC)C(=O)c1c3c(cc(O)c1C2=O)[C@@]12O[C@@]1([C@@H](C)O)[C@H](C#C/C=C\C#C[C@H]2O)N3
- Activity [1]: inactive
- deltaG [2]: -18.1 kcal/mol
- Activity [3]: Active
- Activity [4]: Non-Toxic
- Activity [5]: Active
- Activity [6]: Non-Toxic
- IC50 [7]: 37.9 nM
- Activity [8]: Non-Toxic
- Activity [9]: Non-Toxic
- Activity [10]: Active
- Activity [11]: inactive
- Activity [12]: inactive
- IC50 at 72 h [13]: 6.8 nM
- Activity [14]: inactive
- IC50 [15]: 0.1 nM
- Activity [16]: Active
- Activity [17]: inactive
- Activity [18]: inactive
- IC50 [19]: 0.1 nM
- Activity [20]: Non-Toxic
- Activity [21]: inactive
- IC50 [22]: 1.3 nM
- deltaG [23]: -7.98 kcal/mol
- Activity [24]: Non-Toxic
- Activity [25]: Non-Toxic
- Activity [26]: inactive
- Activity [27]: Non-Toxic
- deltaG [28]: -23.8 kcal/mol
- Activity [29]: Active
- Activity [30]: Non-Toxic
- Activity [31]: Non-Toxic
- Activity [32]: Active
- Activity [33]: inactive
- IC50 at 72 h [34]: 6 nM
- Activity [35]: Non-Toxic
- EC50 [36]: 17.3 nM
